Measured values taken from patent publication US20060073504A1, “Treatment of pain by inhibition of caspase signaling” (The Regents of the University of California, priority 2004, published 2006).
Entries after “also recorded” stand apart in the source; their conditions may differ.

Experiments:
Assay type in all cases: in vivo, rat
[1] = test system: epinephrine (Epi)-induced hyperalgesia; experiment: Epinephrine-induced mechanical hyperalgesia, inhibitor co-injected; settings: co-injected with Epi 100 ng/paw, read at 30 min
Protocol: (§1) Experiments were performed on 220-260-g male Sprague-Dawley rats (Charles River, Fremont, Calif., USA). Rats were housed in groups of 2 under a 12-h light-dark cycle. Food and water were available ad libitum. Experiments were carried out in accordance with NIH regulations for the care and use of animals in research, and under approval of the Institutional Animal Care and Use Committee of the University of California, San Francisco.
(§2) The nociceptive mechanical flexion reflex was quantified with an Ugo Basile Analgesymeter® (Stoelting, Chicago, Ill.), which applies a linearly increasing mechanical force to the dorsum of the rat's hind paw. Mechanical paw-withdrawal thresholds were determined in control (saline treated) and test agent treated rats. Four readings were taken at 5-min intervals and the mean of the last three readings were used to define the baseline paw-withdrawal threshold (Aley and Levine, 1999; Aley et al., 2001). The time at which the readings were taken was based on the time course of each test agent (described in results). […]
(§3) FIG. 7 depicts the effect of the non-selective caspase inhibitor on prostaglandin E2 (PGE2), epinephrine (Epi)-induced hyperalgesia. The caspase inhibitor was co-injected with PGE2 and epinephrine and the paw-withdrawal thresholds measured 30 min after the drug administration. […]

[2] = test system: prostaglandin E2 (PGE2)-induced hyperalgesia; experiment: PGE2-induced mechanical hyperalgesia, inhibitor co-injected; settings: co-injected with PGE2 100 ng/paw, read at 30 min
Protocol: as §1, §2, §3

[3] = test system: STZ-induced mechanical hyperalgesia; experiment: STZ (diabetes)-induced mechanical hyperalgesia, paw-withdrawal threshold; settings: single test dose 5 μg i.d. hind paw, rats treated with STZ 50 mg/kg i.v.
Protocol: as §1
(§4) The nociceptive mechanical flexion reflex was quantified with an Ugo Basile Analgesymeter® (Stoelting, Chicago, Ill.), which applies a linearly increasing mechanical force to the dorsum of the rat's hind paw. Mechanical paw-withdrawal thresholds were determined in control (saline treated) and test agent treated rats. Four readings were taken at 5-min intervals and the mean of the last three readings were used to define the baseline paw-withdrawal threshold (Aley and Levine, 1999; Aley et al., 2001). The time at which the readings were taken was based on the time course of each test agent (described in results).
Algesic agents employed in this study were: vincristine sulfate (VCR), 2′,3′-dideoxycytidine (ddC), streptozotocin sulfate (STZ), tumor necrosis factor-α (TNFα) prostaglandin E2 (PGE2), epinephrine (Epi) (Sigma, St. Louis, Mo.) and N-Acetyl Sphingosine (C2-Ceramide obtained from Upstate USA, Inc, Lake Placid, N.Y.). […]

[4] = test system: mechanical hyperalgesia induced by ceramide; experiment: C2-ceramide-induced mechanical hyperalgesia, inhibitors co-injected; settings: inhibitor 5 μg co-injected i.d. with C2-ceramide 10 μg, read at 1 hr; p<0.05
Protocol: as §1, §4
Inhibitors of caspases and neutral sphingomyelinase are described in Table I, which is repeated for convenience. […]
FIG. 6 depicts the effect of inhibitors of caspases on mechanical hyperalgesia induced by ceramide. […] The inhibitors were co-injected with ceramide and paw-withdrawal thresholds measured 1 hr after the drug administration. […]

[5] = test system: mechanical hyperalgesia induced by 2′,3′-dideoxycytidine (ddC); experiment: ddC-induced mechanical hyperalgesia, paw-withdrawal threshold (Ugo Basile Analgesymeter); settings: inhibitor 5 μg i.d. hind paw, day 5 after ddC 50 mg/kg i.v., read 30 min after inhibitor; p<0.05
Protocol: as §1, §4
(§5) Algesic agents employed in this study were: vincristine sulfate (VCR), 2′,3′-dideoxycytidine (ddC), streptozotocin sulfate (STZ), tumor necrosis factor-α (TNFα) prostaglandin E2 (PGE2), epinephrine (Epi) (Sigma, St. Louis, Mo.) and N-Acetyl Sphingosine (C2-Ceramide obtained from Upstate USA, Inc, Lake Placid, N.Y.). Doses of the algesic agents were, VCR (200 μg/kg), ddC (50 mg/kg), STZ (50 mg/kg), PGE2 (100 ng/paw) and Epi (100 ng/paw). A single i.v. injection of VCR (200 μg/kg) produced significant mechanical hyperalgesia (>30 % reduction in paw-withdrawal threshold). This effect reached maximum on day 5 following the drug administration and was persistent for more then 15 days (Joseph, 2003 #5). STZ (50 mg/kg, i.v.×1), induced diabetes in rats, as indicated by with a blood glucose level >300 mg/dL, and a nociceptive threshold reduction (>30%). This effect reached maximum on day 3 following administration of the neuropathy inducing drug and was persistent for over 15 days (Joseph, 2003 #4).
(§6) TNFα, C2-Ceramide, PGE2, Epi, and all the inhibitors (see Table I) were administered intradermally (i.d.) on the dorsal surface of the hind paw in a volume of 2.5-5.0 μl, via a 30-gauge hypodermic needle. In co-injection experiments, agents were separated by very small air pockets, in one syringe, so that they could be administered with a single cutaneous needle penetration. As a control, all inhibitors were studied for independent effects on baseline nociceptive threshold. Inhibitors were either co-injected (with TNFα, C2-Ceramide, PGE2, and Epi) or administered on day five following the administration of VCR, ddC and STZ. Drugs were either dissolved in saline (VCR, ddC, STZ, TNF-α, PGE2, Epi) or in 10% DMSO (C2-Ceramide and inhibitors).
(§7) Group data are presented as % reduction in nociceptive threshold (mean+/±SEM) and comparisons between groups performed using Student's t-test (paired or unpaired, as appropriate). A probability of p<0.05 was considered statistically significant.
FIG. 1 depicts the effect of inhibitors of caspases administered in the hind paw of the rat, on mechanical hyperalgesia induced by the AIDS therapy drug 2′,3′-dideoxycytidine (ddC). The effect of inhibitors of caspase 1 (BACMK), 2 (Z-VDAD-FMK), 3 (Ac-DMQD-CHO), 8 (IETD-CHO), 9 (Z-LEHD-FMK.TFA), the non-selective broad-spectrum caspase inhibitor (NS) Z-VAD-FMK and the negative control for the non-selective broad-spectrum caspase inhibitor Z-FA-FMK [NS (Con)] on the nociceptive paw-withdrawal thresholds of rats were evaluated. Paw-withdrawal thresholds were measured on the 5th day after injection of ddC and 30 min after the administration of inhibitors. N=8/group, *=p<0.05, with respect to mechanical nociceptive threshold prior to injection of the inhibitor.

[6] = test system: mechanical hyperalgesia induced by vincristine (VCR); experiment: Vincristine-induced mechanical hyperalgesia, paw-withdrawal threshold; settings: inhibitor 5 μg i.d. hind paw, day 5 after VCR 200 μg/kg i.v., read 30 min after inhibitor; p<0.05
Protocol: as §1, §4, §5, §6, §7
FIG. 2 depicts the effect of inhibitors of caspases, administered in the hind paw of the rat, on mechanical hyperalgesia induced by the cancer chemotherapy drug Vincristine (VCR). The effect of inhibitors of caspase 1, 2, 3, 8, 9, the non-selective broad-spectrum caspase inhibitor (NS) and the negative control for the non-selective broad-spectrum caspase inhibitor [NS (Con)] on the nociceptive paw-withdrawal thresholds were evaluated. Paw-withdrawal thresholds were measured on the 5th day after injection of VCR and 30 min after the administration of the inhibitors. N=8/group, *=p<0.05, with respect to the value prior to injection of the inhibitor.

[7] = test system: mechanical hyperalgesia induced by TNF-α; experiment: TNFα-induced mechanical hyperalgesia, inhibitors co-injected; settings: inhibitor 5 μg co-injected i.d. with TNFα 100 ng, read at 30 min; p<0.05
Protocol: as §1, §4
Inhibitors of caspases and neutral sphingomyelinase are described in Table I, which is repeated for convenience. The doses of TNFα (100 ng) and C2-Ceramide (10 μg) were based on dose response experiments performed as part of this study. VCR, STZ, and ddC were administered intravenously (i.v.) in a volume of 1 ml/kg, followed by 0.5 ml saline. Control rats received equal volume of saline. […]
FIG. 4 depicts the effect of inhibitors of caspases and sphingomyelinase on mechanical hyperalgesia induced by tumor necrosis factor alpha (TNF-α). The effect of inhibitors of caspase 1, 2, 3, 8, 9, the non-selective broad-spectrum caspase inhibitor (NS), the negative control for the non-selective broad-spectrum caspase inhibitor [NS (Con)], and the neutral sphingomyelinase inhibitor (GW4869) on the nociceptive paw-withdrawal thresholds of rats was evaluated. The inhibitors were co-injected with TNF-α and the paw-withdrawal thresholds measured 30 min after the drug administration. […]

[8] = test system: mechanical nociceptive threshold of normal/control rats; experiment: Independent effect of inhibitors on baseline mechanical nociceptive threshold in control rats; settings: i.d. hind paw, data not shown
Protocol: as §1, §4
TNFα, C2-Ceramide, PGE2, Epi, and all the inhibitors (see Table I) were administered intradermally (i.d.) on the dorsal surface of the hind paw in a volume of 2.5-5.0 μl, via a 30-gauge hypodermic needle. […]

Z-Val-Ala-Asp(OMe)-Fluoro methyl ester [Z-VAD-FMK]
effect on Epi-induced hyperalgesia [1]: had no effect on the hyperalgesia
effect on PGE2-induced hyperalgesia [2]: had no effect on the hyperalgesia
effect on STZ-induced mechanical hyperalgesia [3]: did not produce significant attenuation of hyperalgesia; also recorded: having no effect
effect on C2-ceramide-induced hyperalgesia [4]: significantly less hyperalgesia
effect on ddC-induced mechanical hyperalgesia [5]: markedly attenuated; also recorded: markedly attenuating pain-related behavior
effect on vincristine-induced mechanical hyperalgesia [6]: markedly attenuated; also recorded: moderately attenuating pain
effect on TNFα-induced hyperalgesia [7]: markedly attenuated
effect of inhibitor alone on mechanical nociceptive threshold [8]: had no effect on mechanical nociceptive threshold
